Measurements: PubChem BioAssay AID328 (DTP/NCI, 2004)
“And” between values parts separate entries of the source, which are not always exact repeats. Equal values may be shown once. Inconclusive results and toxic doses are left out. Non-standard residues stand in square brackets, D forms with d. Residues, ends and D or L forms follow the SMILES beside them. ξ: configuration not given here. *: point of attachment. Boc = CC(C)(C)OC(=O)*; ξM = CSCCC(N)C(=O)O

Tested on: BDF1 mice, P388 leukemia ip, median survival T/C
Experiment: NCI In Vivo Anticancer Drug Screen. Data for tumor model P388 Leukemia (intraperitoneal) in B6D2F1 (BDF1) mice
Details: endpoint: median survival time, higher = longer survival
Summary of the method: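 Each value expresses how treatment altered survival: treated-mouse outcome over vehicle-mouse outcome, both groups bearing the transplanted tumour.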

[1] = dose: 100.0 mg/kg/injection, schedule: Q01DX001 (ip), vehicle: saline
[2] = dose: 25.0 mg/kg/injection, schedule: Q01DX009 (ip), vehicle: saline with Tween-80
[3] = dose: 25.0 mg/kg/injection, schedule: Q01DX009 (ip), vehicle: saline
[4] = dose: 100.0 mg/kg/injection, schedule: Q01DX009 (ip), vehicle: saline
[5] = dose: 200.0 mg/kg/injection, schedule: Q01DX009 (ip), vehicle: saline
[6] = dose: 25.0 mg/kg/injection, schedule: Q04DX003 (ip), vehicle: saline with Tween-80
[7] = dose: 50.0 mg/kg/injection, schedule: Q01DX009 (ip), vehicle: saline with Tween-80
[8] = dose: 50.0 mg/kg/injection, schedule: Q04DX003 (ip), vehicle: saline with Tween-80
[9] = dose: 100.0 mg/kg/injection, schedule: Q01DX009 (ip), vehicle: saline with Tween-80
[10] = dose: 100.0 mg/kg/injection, schedule: Q04DX003 (ip), vehicle: saline with Tween-80
[11] = dose: 200.0 mg/kg/injection, schedule: Q01DX009 (ip), vehicle: saline with Tween-80
[12] = dose: 200.0 mg/kg/injection, schedule: Q04DX003 (ip), vehicle: saline with Tween-80
[13] = dose: 400.0 mg/kg/injection, schedule: Q01DX009 (ip), vehicle: saline with Tween-80
[14] = dose: 400.0 mg/kg/injection, schedule: Q04DX003 (ip), vehicle: saline with Tween-80
[15] = dose: 50.0 mg/kg/injection, schedule: Q01DX009 (ip), vehicle: saline
[16] = dose: 100.0 mg/kg/injection, schedule: Q04DX003 (ip), vehicle: saline
[17] = dose: 200.0 mg/kg/injection, schedule: Q04DX003 (ip), vehicle: saline

SMILES: CC[C@](O)(C(=O)O)c1cc2n(c(=O)c1CO)Cc1cc3ccccc3nc1-2
- T/C (dose: 1.0 mg/kg/injection, schedule: Q01DX009 (ip), vehicle: water): 112 % of control
- T/C (dose: 2.0 mg/kg/injection, schedule: Q01DX009 (ip), vehicle: saline): 156 % of control
- T/C (dose: 2.0 mg/kg/injection, schedule: Q01DX009 (ip), vehicle: water): 150 % of control
- T/C (dose: 3.13 mg/kg/injection, schedule: Q04DX002 (ip), vehicle: saline): 116 % of control
- T/C (dose: 4.0 mg/kg/injection, schedule: Q01DX009 (ip), vehicle: saline): 171 % of control
- T/C (dose: 12.5 mg/kg/injection, schedule: Q04DX002 (ip), vehicle: saline): 161 % of control
- T/C (dose: 12.5 mg/kg/injection, schedule: Q04DX009 (ip), vehicle: saline): 192 % of control
- T/C (dose: 14.4 mg/kg/injection, schedule: Q04DX003 (ip), vehicle: saline): 175 % of control
- T/C (dose: 18.0 mg/kg/injection, schedule: Q04DX003 (ip), vehicle: saline): 175 % of control
- T/C (dose: 24.0 mg/kg/injection, schedule: Q04DX003 (ip), vehicle: saline): 214 % of control
- T/C (dose: 25.0 mg/kg/injection, schedule: Q04DX002 (ip), vehicle: saline): 199 % of control
- T/C (dose: 25.0 mg/kg/injection, schedule: Q04DX009 (ip), vehicle: saline): 192 % of control
- T/C (dose: 30.0 mg/kg/injection, schedule: Q04DX003 (ip), vehicle: saline): 201 % of control
- T/C (dose: 33.0 mg/kg/injection, schedule: Q04DX003 (ip), vehicle: saline): 168 % of control
- T/C (dose: 40.0 mg/kg/injection, schedule: Q04DX003 (ip), vehicle: saline): 224 % of control
- T/C (dose: 40.0 mg/kg/injection, schedule: Q04DX003 (ip), vehicle: water): 104 % of control
- T/C (dose: 50.0 mg/kg/injection, schedule: Q04DX003 (ip), vehicle: saline): 172 % of control
- T/C (dose: 66.7 mg/kg/injection, schedule: Q04DX003 (ip), vehicle: saline): 90 % of control
- T/C (dose: 75.0 mg/kg/injection, schedule: Q04DX003 (ip), vehicle: saline): 200 % of control
- T/C [1]: 172 % of control
- T/C (dose: 150.0 mg/kg/injection, schedule: Q01DX001 (ip), vehicle: saline): 43 % of control
- T/C (dose: 175.0 mg/kg/injection, schedule: Q01DX001 (ip), vehicle: saline): 90 % of control

SMILES: NC(N)=N/N=C/c1cccc2ccccc12
- T/C (dose: 6.25 mg/kg/injection, schedule: Q01DX009 (ip), vehicle: saline with Tween-80): 100 % of control
- T/C (dose: 12.5 mg/kg/injection, schedule: Q01DX009 (ip), vehicle: saline with Tween-80): 108 % of control
- T/C [2]: 108 % of control

SMILES: O=C(Nc1ccccc1)c1ccc(C(F)(F)F)cc1O
- T/C (dose: 16.5 mg/kg/injection, schedule: Q01DX009 (ip), vehicle: saline): 99 % of control
- T/C [3]: 93 % of control
- T/C (dose: 35.0 mg/kg/injection, schedule: Q01DX009 (ip), vehicle: saline): 112 % of control
- T/C [4]: 108 % of control
- T/C [5]: 95 % of control

SMILES: CSCCC(NC(=O)CNC(=O)OC(C)(C)C)C(=O)NCC(=O)O (stereo not drawn) (Boc-Gly-[ξM]-Gly-OH)
- T/C (dose: 50.0 mg/kg/injection, schedule: Q01DX005 (ip), vehicle: saline with Tween-80): 98 % of control
- T/C (dose: 100.0 mg/kg/injection, schedule: Q01DX005 (ip), vehicle: saline with Tween-80): 95 % of control
- T/C (dose: 200.0 mg/kg/injection, schedule: Q01DX005 (ip), vehicle: saline with Tween-80): 95 % of control

SMILES: Clc1nc(Cl)c(Cl)nc1Cl
- T/C [2]: 100 % of control
- T/C [6]: 97 % of control
- T/C [7]: 97 % of control
- T/C [8]: 113 % of control
- T/C [9]: 113 % of control
- T/C [10]: 108 % of control
- T/C [11]: 113 % of control
- T/C [12]: 97 % of control
- T/C [13]: 106 % of control
- T/C [14]: 106 % of control

SMILES: CCOc1ccc(Br)cc1/C=N\N=C\c1cc(Br)ccc1OCC
- T/C (dose: 6.0 mg/kg/injection, schedule: Q01DX001 (ip), vehicle: Klucel (hydroxypropylcellulose) (HPC)): 87 % of control
- T/C (dose: 12.0 mg/kg/injection, schedule: Q01DX001 (ip), vehicle: Klucel (hydroxypropylcellulose) (HPC)): 95 % of control
- T/C (dose: 25.0 mg/kg/injection, schedule: Q01DX001 (ip), vehicle: Klucel (hydroxypropylcellulose) (HPC)): 86 % of control

SMILES: Cc1c(C)c([N+](=O)[O-])c(Br)c(C)c1[N+](=O)[O-]
- T/C [9]: 95 % of control
- T/C [10]: 104 % of control
- T/C (dose: 132.0 mg/kg/injection, schedule: Q04DX003 (ip), vehicle: saline with Tween-80): 109 % of control
- T/C [11]: 90 % of control
- T/C [12]: 118 % of control
- T/C (dose: 300.0 mg/kg/injection, schedule: Q04DX003 (ip), vehicle: saline with Tween-80): 100 % of control
- T/C [13]: 95 % of control
- T/C [14]: 122 % of control

SMILES: CC1=CC(C(O)C(C)C)C(C)(Cc2ccc(C)cn2)NC1c1ccccc1 (stereo not drawn)
- T/C (dose: 6.25 mg/kg/injection, schedule: Q04DX003 (ip), vehicle: saline with Tween-80): 102 % of control
- T/C (dose: 12.5 mg/kg/injection, schedule: Q04DX003 (ip), vehicle: saline with Tween-80): 102 % of control
- T/C [6]: 109 % of control

SMILES: Nc1ccc(CCCCc2ccc(Cl)cc2Cl)cc1
- T/C [3]: 95 % of control
- T/C [15]: 95 % of control
- T/C [4]: 95 % of control
- T/C [16]: 104 % of control
- T/C (dose: 150.0 mg/kg/injection, schedule: Q01DX009 (ip), vehicle: saline): 109 % of control
- T/C [17]: 100 % of control

SMILES: CCOC(=O)C(Br)C(Br)c1ccccc1 (stereo not drawn)
- T/C (dose: 50.0 mg/kg/injection, schedule: Q01DX001 (ip), vehicle: saline): 100 % of control
- T/C [8]: 91 % of control
- T/C [1]: 90 % of control
- T/C [10]: 108 % of control
- T/C (dose: 200.0 mg/kg/injection, schedule: Q01DX001 (ip), vehicle: saline): 118 % of control
- T/C [12]: 112 % of control

SMILES: CCOC(=O)C1CSC2(CCCCC2)N1 (stereo not drawn)
- T/C [15]: 92 % of control
- T/C [4]: 94 % of control
- T/C [5]: 109 % of control

SMILES: Clc1ncc(Br)c(Cl)n1
- T/C (dose: 2.7 mg/kg/injection, schedule: Q01DX009 (ip), vehicle: Klucel (hydroxypropylcellulose) (HPC)): 95 % of control
- T/C (dose: 4.1 mg/kg/injection, schedule: Q01DX009 (ip), vehicle: Klucel (hydroxypropylcellulose) (HPC)): 95 % of control
- T/C (dose: 8.2 mg/kg/injection, schedule: Q01DX009 (ip), vehicle: Klucel (hydroxypropylcellulose) (HPC)): 109 % of control
- T/C (dose: 8.3 mg/kg/injection, schedule: Q01DX009 (ip), vehicle: Klucel (hydroxypropylcellulose) (HPC)): 100 % of control
- T/C (dose: 12.5 mg/kg/injection, schedule: Q01DX009 (ip), vehicle: Klucel (hydroxypropylcellulose) (HPC)): 100 % of control and 109 % of control
- T/C (dose: 13.75 mg/kg/injection, schedule: Q04DX003 (ip), vehicle: Klucel (hydroxypropylcellulose) (HPC)): 104 % of control
- T/C (dose: 18.0 mg/kg/injection, schedule: Q01DX009 (ip), vehicle: Klucel (hydroxypropylcellulose) (HPC)): 100 % of control
- T/C (dose: 18.75 mg/kg/injection, schedule: Q01DX009 (ip), vehicle: Klucel (hydroxypropylcellulose) (HPC)): 115 % of control
- T/C (dose: 27.5 mg/kg/injection, schedule: Q04DX003 (ip), vehicle: Klucel (hydroxypropylcellulose) (HPC)): 100 % of control
- T/C (dose: 55.0 mg/kg/injection, schedule: Q04DX003 (ip), vehicle: Klucel (hydroxypropylcellulose) (HPC)): 108 % of control
- T/C (dose: 80.0 mg/kg/injection, schedule: Q04DX003 (ip), vehicle: Klucel (hydroxypropylcellulose) (HPC)): 108 % of control
- T/C (dose: 125.0 mg/kg/injection, schedule: Q04DX003 (ip), vehicle: Klucel (hydroxypropylcellulose) (HPC)): 100 % of control

SMILES: NNC(=O)NC(=O)NN
- T/C [15]: 104 % of control
- T/C [16]: 113 % of control
- T/C [17]: 113 % of control

SMILES: O=C(O)C1CC[N-]CC1.O=C(O)C1CC[N-]CC1.[NH2-].[NH2-].[Pt+4]
- T/C (dose: 50.0 mg/kg/injection, schedule: Q01DX009 (ip), vehicle: water): 96 % of control
- T/C (dose: 100.0 mg/kg/injection, schedule: Q01DX009 (ip), vehicle: water): 96 % of control
- T/C (dose: 400.0 mg/kg/injection, schedule: Q01DX009 (ip), vehicle: water): 113 % of control

SMILES: Cc1noc2ncnc(NCCCN(C)C)c12
- T/C [7]: 99 % of control
- T/C [9]: 99 % of control
- T/C [11]: 102 % of control
